In one assay the target is T1, Drosophila OR49b (Drosophila melanogaster, UniProt Q9V6H2).
T1 construct: expressed in transfected cells
T1 sequence (Q9V6H2 1-375): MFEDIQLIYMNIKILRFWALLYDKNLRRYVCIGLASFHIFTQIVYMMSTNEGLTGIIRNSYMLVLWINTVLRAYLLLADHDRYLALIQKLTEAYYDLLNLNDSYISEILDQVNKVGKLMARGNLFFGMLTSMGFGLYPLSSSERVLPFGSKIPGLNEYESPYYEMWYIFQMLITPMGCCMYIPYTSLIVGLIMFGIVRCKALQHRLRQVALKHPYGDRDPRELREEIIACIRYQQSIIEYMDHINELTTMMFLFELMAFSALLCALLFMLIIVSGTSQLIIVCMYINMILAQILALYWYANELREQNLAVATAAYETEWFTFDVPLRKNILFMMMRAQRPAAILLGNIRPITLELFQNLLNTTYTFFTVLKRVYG
T1 sequence (Q9VNB5 1-486 partner): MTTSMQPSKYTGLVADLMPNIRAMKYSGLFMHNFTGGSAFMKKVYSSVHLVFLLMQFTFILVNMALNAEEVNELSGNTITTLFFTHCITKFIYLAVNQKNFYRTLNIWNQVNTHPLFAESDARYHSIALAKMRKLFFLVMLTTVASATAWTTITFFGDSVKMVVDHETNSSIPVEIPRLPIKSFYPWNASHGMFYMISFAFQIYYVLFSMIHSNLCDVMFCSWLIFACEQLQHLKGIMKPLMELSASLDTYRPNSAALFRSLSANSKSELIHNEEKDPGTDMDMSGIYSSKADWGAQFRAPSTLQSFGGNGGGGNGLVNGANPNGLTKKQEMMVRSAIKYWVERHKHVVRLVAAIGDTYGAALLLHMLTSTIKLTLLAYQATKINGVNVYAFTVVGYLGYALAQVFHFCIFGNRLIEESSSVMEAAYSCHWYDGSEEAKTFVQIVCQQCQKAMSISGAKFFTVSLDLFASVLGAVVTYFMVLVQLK
The assay is described as follows: cell-based. The settings on record: for activation at 1 µM / activation at 10 µM / activation at 100 µM: HEK293; for Average response: OR49b cell line, mean of biological replicates. The essentials:
(§1)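 HEK293 lines stably expressing each Drosophila OR with GCaMP6, doxycycline-induced (1 μg/mL) 48 or 72 h. Fluorescence recorded 5 s baseline then 30 s after VOC injection at pH 7.3; ΔF=(FMAX−F0)/F0, normalized to 50 µM VUAA1 response per line, triplicate wells averaged; concentration series 0.01–100 μM.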

In the next assay the target is T2, Drosophila OR13a (Drosophila melanogaster, UniProt Q9VXL0).
T2 construct: expressed in transfected cells
T2 sequence (Q9VXL0 1-418): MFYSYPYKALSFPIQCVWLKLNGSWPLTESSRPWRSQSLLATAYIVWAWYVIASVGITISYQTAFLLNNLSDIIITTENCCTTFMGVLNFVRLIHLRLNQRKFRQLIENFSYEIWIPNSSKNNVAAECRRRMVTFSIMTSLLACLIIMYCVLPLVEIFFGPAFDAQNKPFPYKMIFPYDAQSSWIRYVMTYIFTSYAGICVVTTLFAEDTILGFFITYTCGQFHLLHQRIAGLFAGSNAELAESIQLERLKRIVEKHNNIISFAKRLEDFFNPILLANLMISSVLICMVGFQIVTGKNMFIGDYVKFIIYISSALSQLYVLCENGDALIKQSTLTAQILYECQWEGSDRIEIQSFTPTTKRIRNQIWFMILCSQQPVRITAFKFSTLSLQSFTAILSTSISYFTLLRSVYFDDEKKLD
T2 sequence (Q9VNB5 1-486 partner): T1 sequence (Q9VNB5 1-486 partner)
The assay is described as follows: Calcium ion fluorescence (GCaMP6) assay, OR13a stable HEK293 cell line. The assay is classed as cell-based. The essentials: as §1

Where [1] appears, read: VOC concentration 1 μM, read-out: OR49b response (VUAA1-normalized response).
Where [2] appears, read: VOC concentration 10 μM, read-out: OR49b response (VUAA1-normalized response).
Setting [3] is: VOC concentration 100 μM, read-out: OR49b response (VUAA1-normalized response).
Setting [4] is: HEK293, read-out: OR13a Average response (VUAA1-normalized), 1 μM VOC, 50 μM VUAA1 = 1, responses not exceeding 0.05 considered 0.
Setting [5] is: HEK293, read-out: OR13a Average response (VUAA1-normalized), 10 μM VOC, 50 μM VUAA1 = 1, responses not exceeding 0.05 considered 0.
Setting [6] is: HEK293, read-out: OR13a Average response (VUAA1-normalized), 100 μM VOC, 50 μM VUAA1 = 1, responses not exceeding 0.05 considered 0.
The mark [7] stands for this setting: HEK293, read-out: OR13a response (VUAA1-normalized response), VOC concentration 1 μM.
Where [8] appears, read: HEK293, read-out: OR13a response (VUAA1-normalized response), VOC concentration 10 μM.
[9] abbreviates: HEK293, read-out: OR13a response (VUAA1-normalized response), VOC concentration 100 μM.
Where [10] appears, read: concentration 1, normalized fluorescence change, values below 0.05 threshold given as 0.
[11] abbreviates: concentration 10, normalized fluorescence change, values below 0.05 threshold given as 0.
Setting [12] is: concentration 100, normalized fluorescence change, values below 0.05 threshold given as 0.
Where [13] appears, read: ligand concentration 1 (unit not given), threshold 0.05, below shown as 0.
The mark [14] stands for this setting: ligand concentration 10 (unit not given), threshold 0.05, below shown as 0.
Setting [15] is: ligand concentration 100 (unit not given), threshold 0.05, below shown as 0.

Here are results for six compounds from publication PMC10709440, “High-throughput ligand profile characterization in novel cell lines expressing seven heterologous insect olfactory receptors for the detection of volatile plant biomarkers” (Scientific Reports, 2023).

Where two headings read alike, the source gives them in different places.

Take `C=C1CC[C@H]2O[C@]2(C)CC[C@@H]2[C@@H]1CC2(C)C` [(-)-caryophyllene oxide]: the “DF norm AVERAGE OR49b” value at Drosophila OR49b amounted to 0. In addition, the activation at 1 µM at Drosophila OR49b (setting [1]), on Drosophila OR13a (setting [4]) and on Drosophila OR13a (setting [7]) was 0% throughout. In addition, the activation at 10 µM at Drosophila OR49b (setting [2]), at Drosophila OR13a (setting [5]) and at Drosophila OR13a (setting [8]) was 0% in each case. The activation at 100 µM at Drosophila OR49b (setting [3]), at Drosophila OR13a (setting [6]) and on Drosophila OR13a (setting [9]) was 0% each time. In addition, the Average response at Drosophila OR49b (odorant cc. 1 µM), at Drosophila OR49b (odorant cc. 10 µM) and at Drosophila OR49b (odorant cc. 100 µM) was 0.00 in each case. The “DF norm AVERAGE OR13a” value at Drosophila OR13a (setting [10]), on Drosophila OR13a (setting [11]) and on Drosophila OR13a (setting [12]) was 0 in each case.

As for `CCCCOC(=O)CC` [butyl propanoate], the activation at 1 µM on Drosophila OR49b (setting [1]), on Drosophila OR13a (setting [4]) and at Drosophila OR13a (setting [7]) was 0% in each case. The activation at 10 µM at Drosophila OR49b (setting [2]), at Drosophila OR13a (setting [5]) and on Drosophila OR13a (setting [8]) was 0% throughout. Moreover, the activation at 100 µM at Drosophila OR49b (setting [3]), on Drosophila OR13a (setting [6]) and at Drosophila OR13a (setting [9]) was 0% in each case. Moreover, the Average response at Drosophila OR49b (odorant cc. 1 µM), on Drosophila OR49b (odorant cc. 10 µM) and at Drosophila OR49b (odorant cc. 100 µM) was 0.00 each time. For the same compound, the “DF norm AVERAGE OR49b” value on Drosophila OR49b (setting [13]), at Drosophila OR49b (setting [14]) and on Drosophila OR49b (setting [15]) was 0 each time. Also, the “DF norm AVERAGE OR13a” value on Drosophila OR13a (setting [13]), on Drosophila OR13a (setting [14]) and at Drosophila OR13a (setting [15]) was 0 in each case.

With `C=CCc1ccc(O)c(OC)c1` [eugenol], the activation at 1 µM on Drosophila OR49b (setting [1]), at Drosophila OR13a (setting [4]) and on Drosophila OR13a (setting [7]) was 0% in each case. Also, the activation at 10 µM on Drosophila OR49b (setting [2]), on Drosophila OR13a (setting [5]) and at Drosophila OR13a (setting [8]) was 0% each time. Further, the activation at 100 µM on Drosophila OR49b (setting [3]), at Drosophila OR13a (setting [6]) and on Drosophila OR13a (setting [9]) was 0% throughout. Moreover, the Average response at Drosophila OR49b (odorant cc. 1 µM) amounted to 0.05; on Drosophila OR49b (odorant cc. 10 µM), 0.00; on Drosophila OR49b (odorant cc. 100 µM), 0.00. For the same compound, the “DF norm AVERAGE OR49b” value at Drosophila OR49b (setting [13]), on Drosophila OR49b (setting [14]) and on Drosophila OR49b (setting [15]) was 0 in each case. The “DF norm AVERAGE OR13a” value at Drosophila OR13a (setting [13]), on Drosophila OR13a (setting [14]) and at Drosophila OR13a (setting [15]) was 0 in each case.

In the case of `O=Cc1ccccc1` [benzaldehyde], the activation at 1 µM on Drosophila OR49b (1 μM VOC, 50 μM VUAA1 = 1, read-out: OR49b Average response (VUAA1-normalized)) was determined as 0%; on Drosophila OR49b (setting [1]), 0%; at Drosophila OR13a (setting [4]) it was 0%; at Drosophila OR13a (setting [7]) it was 0%. Besides, the activation at 10 µM is 3% on Drosophila OR49b (10 μM VOC, 50 μM VUAA1 = 1, read-out: OR49b Average response (VUAA1-normalized)); 0% at Drosophila OR49b (setting [2]); 8% at Drosophila OR13a (setting [5]); 8% on Drosophila OR13a (setting [8]). Also, the activation at 100 µM on Drosophila OR49b (100 μM VOC, 50 μM VUAA1 = 1, read-out: OR49b Average response (VUAA1-normalized)) was 23%; on Drosophila OR49b (setting [3]), 23%; on Drosophila OR13a (setting [6]), 5%; on Drosophila OR13a (setting [9]) it was 0%. In addition, the Average response on Drosophila OR49b (odorant cc. 1 µM) worked out at 0.00; on Drosophila OR49b (odorant cc. 10 µM), 0.0283; at Drosophila OR49b (odorant cc. 100 µM) it was 0.23. Further, the “DF norm AVERAGE OR49b” value on Drosophila OR49b (setting [13]) is 0; on Drosophila OR49b (setting [14]), 0; on Drosophila OR49b (setting [15]), 0.2265. Also, the “DF norm AVERAGE OR13a” value at Drosophila OR13a (setting [13]) was 0; on Drosophila OR13a (setting [14]) it was 0.07623; on Drosophila OR13a (setting [15]) it was 0.

Take `CCCCCO` [1-pentanol]: the “DF norm AVERAGE OR49b” value at Drosophila OR49b was found to be 0. The activation at 1 µM on Drosophila OR49b (setting [1]), at Drosophila OR13a (setting [4]) and on Drosophila OR13a (setting [7]) was 0% in each case. Moreover, the activation at 10 µM on Drosophila OR49b (setting [2]) turned out to be 0%; on Drosophila OR13a (setting [5]), 1.6%; at Drosophila OR13a (setting [8]) it was 0%. Moreover, the activation at 100 µM at Drosophila OR49b (setting [3]), at Drosophila OR13a (setting [6]) and at Drosophila OR13a (setting [9]) was 0% each time. Further, the results for the Average response at Drosophila OR49b (odorant cc. 1 µM), on Drosophila OR49b (odorant cc. 10 µM) and on Drosophila OR49b (odorant cc. 100 µM) were 0.00, 0.00 and 0.0167, respectively. In addition, the “DF norm AVERAGE OR13a” value at Drosophila OR13a (setting [10]), at Drosophila OR13a (setting [11]) and at Drosophila OR13a (setting [12]) was 0 each time.

In the case of `CCOC(=O)c1ccccc1` [ethyl benzoate], the values for the activation at 1 µM at Drosophila OR49b (setting [1]), on Drosophila OR13a (setting [4]) and on Drosophila OR13a (setting [7]) were 6%, 1.69% and 0%, respectively. For the same compound, the activation at 10 µM was 0% at Drosophila OR49b (setting [2]), 2.64% at Drosophila OR13a (setting [5]) and 0% on Drosophila OR13a (setting [8]). The activation at 100 µM on Drosophila OR49b (setting [3]) turned out to be 0%; on Drosophila OR13a (setting [6]), 1.67%; at Drosophila OR13a (setting [9]), 0%. Also, the values for the Average response on Drosophila OR49b (odorant cc. 1 µM), on Drosophila OR49b (odorant cc. 10 µM) and at Drosophila OR49b (odorant cc. 100 µM) were 0.06, 0.0464 and 0.0169, respectively. For the same compound, the “DF norm AVERAGE OR49b” value on Drosophila OR49b (setting [13]) is reported as 0.05937; on Drosophila OR49b (setting [14]), 0; on Drosophila OR49b (setting [15]) it was 0. Moreover, the “DF norm AVERAGE OR13a” value at Drosophila OR13a (setting [13]), on Drosophila OR13a (setting [14]) and on Drosophila OR13a (setting [15]) was 0 each time.
